Assay results as given in US12600726B2, “Antagonists of the muscarinic acetylcholine receptor M4” (Vanderbilt University, priority 2017, dated 2026).

Molecular target: T1, Human M4 (Homo sapiens, UniProt P08173)
T1 construct: expressed in transfected cells; host or cells: CHO-K1 (ATCC), stably expressing M4 and Gqi5
T1 sequence (P08173 1-479): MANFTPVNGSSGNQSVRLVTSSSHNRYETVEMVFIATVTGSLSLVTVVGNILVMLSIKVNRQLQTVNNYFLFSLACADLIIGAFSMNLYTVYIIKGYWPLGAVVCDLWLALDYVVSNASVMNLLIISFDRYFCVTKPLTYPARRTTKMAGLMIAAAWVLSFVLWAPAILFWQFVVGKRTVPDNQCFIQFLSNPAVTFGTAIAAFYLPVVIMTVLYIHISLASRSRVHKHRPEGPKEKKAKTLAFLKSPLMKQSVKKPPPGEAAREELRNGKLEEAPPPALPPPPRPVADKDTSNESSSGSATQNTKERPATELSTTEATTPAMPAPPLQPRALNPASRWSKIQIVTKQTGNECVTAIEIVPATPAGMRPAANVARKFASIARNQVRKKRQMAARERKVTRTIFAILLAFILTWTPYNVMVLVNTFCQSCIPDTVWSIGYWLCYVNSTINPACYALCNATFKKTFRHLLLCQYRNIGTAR
Assay: mAChR M4 cell-based functional calcium flux assay (human M4/Gqi5/CHO cells)
Details: for Emin (human M4): % ACh maximum at 30 μM; for IC50: decrease of the response to an EC80 concentration of acetylcholine
Description: Human, rat, or mouse M4. cDNA, along with the chimeric G protein Gqi5, were transfected into Chinese hamster ovary (CHO-K1) cells purchased from the American Type Culture Collection using Lipofectamine2000. M4/Gqi5/CHO cells were grown in Ham's F-12 medium containing 10% heat-inactivated fetal bovine serum (FBS), 20 mM HEPES, 500 μg/mL G418 sulfate, and 200 μg/mL Hygromycin B.
For high throughput measurement of agonist-evoked increases in intracellular calcium, CHO-K1 cells stably expressing muscarinic receptors were plated in growth medium lacking G418 and hygromycin at 15,000 cells/20 μL/well in Greiner 384-well black-walled, tissue culture (TC)-treated, clear-bottom plates (VWR). Cells were incubated overnight at 37° C. and 5% CO2. The next day, cells were washed using an ELX 405 (BioTek) with assay buffer; the final volume was then aspirated to 20 μL. Next, 20 μL of a 2.3 μM stock of Fluo-4/acetoxymethyl ester (Invitrogen, Carlsbad, CA), prepared as a 2.3 mM stock in DMSO and mixed in a 1:1 ratio with 10% (w/v) Pluronic F-127 and diluted in assay buffer, was added to the wells and the cell plates were incubated for 50 min at 37° C. and 5% CO2. Dye was removed by washing with the ELX 405 and the final volume was aspirated to 20 μL. Compound master plates were formatted in a 10 point concentration-response curve (CRC) format (1:3 dilutions) in 100% DMSO with a starting concentration of 10 or 1 mM using a BRAVO liquid handler (Agilent). Test compound CRCs were then transferred to daughter plates (240 nL) using the Echo acoustic plate reformatter (Labcyte, Sunnyvale, CA) and then diluted into assay buffer (40 μL) to a 2× stock using a Thermo Fisher Combi (Thermo Fisher Scientific, Waltham, MA).
Calcium flux was measured using the Functional Drug Screening System (FDSS) 6000 or 7000 (Hamamatsu Corporation, Tokyo, Japan) as an increase in the fluorescent static ratio. Compounds were applied to cells (20 μL, 2×) using the automated system of the FDSS at 2 seconds into the protocol and the data were collected at 1 Hz. At 143 s, 10 μL of an EC20 concentration of the muscarinic receptor agonist acetylcholine was added (5×), followed by the addition of 12 μL of an EC80 concentration of acetylcholine at the 268 s time point (5×). Agonist activity was analyzed as a concentration-dependent increase in calcium mobilization upon compound addition. Positive allosteric modulator activity was analyzed as a concentration-dependent increase in the EC20 acetylcholine response. Antagonist activity was analyzed as a concentration-dependent decrease in the EC80 acetylcholine response; for the purposes of the tables herein, an IC50 (inhibitory concentration 50) was calculated as a concentration-dependent decrease of the response elicited by an EC80 concentration of acetylcholine. Concentration-response curves were generated using a four-parameter logistical equation in XLFit curve fitting software (IDBS, Bridgewater, NJ) for Excel (Microsoft, Redmond, WA) or Prism (GraphPad Software, Inc., San Diego, CA) or the Dotmatics software platform (Dotmatics, Bishop's Stortford, UK).
Compounds were synthesized as described above. Activity (IC50 and Emin) was determined in the mAChR M4 cell-based functional assay as described above and the data are shown in Table 2 and Table 3. The compound number corresponds to the compound numbers used in the examples and Tables 1 and 1.1.

Emin (human M4) [%] | IC50 [nM] | Compound
10 | 1200 | c1cc(N2CCOCC2)nnc1NCC1CC12CCN(CC1CCOCC1)CC2 (stereo not drawn) [Compound 85, 6-morpholino-N-[[6-(tetrahydropyran-4-ylmethyl)-6-azaspiro[2.5]octan-2-yl]methyl]pyridazin-3-amine]
9 | 4.61 | Cc1nn(C)cc1-c1nnc(NCC2CC23CCN(CC2CCOCC2)CC3)c2ccccc12 (stereo not drawn) [Compound 93, 4-(1,3-dimethylpyrazol-4-yl)-N-[[6-(tetrahydropyran-4-ylmethyl)-6-azaspiro[2.5]octan-2-yl]methyl]phthalazin-1-amine]
5 | 16.1 | Cc1nn(C)cc1-c1nnc(NCC2CC23CCN(CC2CCCCC2)CC3)c2ccccc12 (stereo not drawn) [Compound 94, N-[[6-(cyclohexylmethyl)-6-azaspiro[2.5]octan-2-yl]methyl]-4-(1,3-dimethylpyrazol-4-yl)phthalazin-1-amine]
5 | 2.55 | Cc1nn(C)cc1-c1nnc(NCC2CC23CCN(CCC(C)(C)C)CC3)c2ccccc12 (stereo not drawn) [Compound 95, N-[[6-(3,3-dimethylbutyl)-6-azaspiro[2.5]octan-2-yl]methyl]-4-(1,3-dimethylpyrazol-4-yl)phthalazin-1-amine]
5 | 2.96 | Cc1nn(C)cc1-c1nnc(NCC2CC23CCN(CC2CC4C=CC2C4)CC3)c2ccccc12 (stereo not drawn) [Compound 96, N-[[6-(5-bicyclo[2.2.1]hept-2-enylmethyl)-6-azaspiro[2.5]octan-2-yl]methyl]-4-(1,3-dimethylpyrazol-4-yl)phthalazin-1-amine]
3 | 83.3 | Fc1cccc(CN2CCC3(CC2)CC3CNc2ccc(-c3cc(F)ccc3Cl)nn2)c1 (stereo not drawn) [Compound 97, 6-(2-chloro-5-fluoro-phenyl)-N-[[6-[(3-fluorophenyl)methyl]-6-azaspiro[2.5]octan-2-yl]methyl]pyridazin-3-amine]
5 | 524 | N#Cc1ccccc1CN1CCC2(CC1)CC2CNc1ccc(-c2cc(F)ccc2Cl)nn1 (stereo not drawn) [Compound 98, 2-[[2-[[[6-(2-chloro-5-fluoro-phenyl)pyridazin-3-yl]amino]methyl]-6-azaspiro[2.5]octan-6-yl]methyl]benzonitrile]
3 | 88.2 | Fc1ccc(CN2CCC3(CC2)CC3CNc2ccc(-c3cc(F)ccc3Cl)nn2)cc1 (stereo not drawn) [Compound 99, 6-(2-chloro-5-fluoro-phenyl)-N-[[6-[(4-fluorophenyl)methyl]-6-azaspiro[2.5]octan-2-yl]methyl]pyridazin-3-amine]
2 | 88.2 | Fc1ccc(Cl)c(-c2ccc(NCC3CC34CCN(Cc3ccccc3F)CC4)nn2)c1 (stereo not drawn) [Compound 100, 6-(2-chloro-5-fluoro-phenyl)-N-[[6-[(2-fluorophenyl)methyl]-6-azaspiro[2.5]octan-2-yl]methyl]pyridazin-3-amine]
3 | 69.2 | Fc1ccc(Cl)c(-c2ccc(NCC3CC34CCN(Cc3ccccc3)CC4)nn2)c1 (stereo not drawn) [Compound 101, N-[(6-benzyl-6-azaspiro[2.5]octan-2-yl)methyl]-6-(2-chloro-5-fluoro-phenyl)pyridazin-3-amine]
2 | 127 | Fc1ccc(Cl)c(-c2ccc(NC[C@@H]3CC34CCN(Cc3ccccc3)CC4)nn2)c1 [Compound 112, N-[[(2R)-6-benzyl-6-azaspiro[2.5]octan-2-yl]methyl]-6-(2-chloro-5-fluoro-phenyl)pyridazin-3-amine]
2 | 88.3 | Fc1ccc(Cl)c(-c2ccc(NC[C@@H]3CC34CCN(Cc3ccccn3)CC4)nn2)c1 [Compound 113, 6-(2-chloro-5-fluoro-phenyl)-N-[[(2R)-6-(2-pyridylmethyl)-6-azaspiro[2.5]octan-2-yl]methyl]pyridazin-3-amine]
